Data as given in patent US10894794B1, “Substituted [1,2,4]triazolo[4,3-a]pyrazines as antidiabetics” (King Abdulaziz University, priority 2019, dated 2021).
Marks after values point to notes of the source that are not given here.

Key:
[1] = system: overnight fasted diabetic mice; assay: OGTT after multiple doses (6 consecutive days); type: in vivo; settings: for AUC in OGTT, % change from diabetic control / AUC in OGTT, Δ from diabetic control / Relative potency to sitagliptin (OGTT AUC) / AUC in OGTT, X (arithmetic mean): 50 mg/kg oral for six days; for AUC in OGTT, X (arithmetic mean): 2 h before glucose loading, AUC 0-120 min; for relative potency in OGTT compared with sitagliptin (in words): 6 consecutive days, 50 mg/kg
Protocol: The tested compounds were given daily by oral gavage for 6 consecutive days. On day 6, the overnight fasted diabetic mice were pretreated with the 6th oral dose of the tested compounds. Then an oral glucose was loaded (2 g/kg/10 ml b.w.) 2 h after drug treatment. Blood glucose levels were determined using the Accu-check Go® (Roche Diagnostics, Michigan, USA). Samples were collected just before drug administration (Fasting Blood glucose), then 2 h after drug treatment and before glucose administration. Sample collection was continued at 20, 40, 60 and 120 min intervals after glucose loading.
• b. Group 1: Animals of this group are 14 h overnight-fasted normoglycemic mice received the vehicle (1% CMC-Na) at a dosing volume of 10 ml/kg/day for six consecutive days. • c. Group 2: Overnight-fasted diabetic mice received the vehicle (1% CMC-Na) at a dosing volume of 10 ml/kg/day for six consecutive days and served as a negative control. • d. Group 3: Overnight-fasted diabetic mice received sitagliptin at a dose of 50 mg/kg/day for six consecutive days and served as positive control. • e. Groups 4-17: Animals in these groups were overnight-fasted diabetic mice and received the tested compounds 128, 129, 130, 131, at a dose of 50 mg/kg/day for six consecutive days (volume of 10 ml/kg). Effect on Blood Glucose Level after Introduction of Food for One Hour (≈Meal Tolerance Test) Rational of the Test

[2] = system: 14 h overnight fasted diabetic mice; assay: Oral glucose tolerance test (OGTT) after single dose; type: in vivo; settings: for glucose-lowering activity in OGTT compared with sitagliptin (in words): single dose 50 mg/kg; for Relative potency to sitagliptin (OGTT AUC) / AUC in OGTT, % change from diabetic control / AUC in OGTT, Δ from diabetic control / AUC in OGTT, X (arithmetic mean): single oral dose 50 mg/kg; for AUC in OGTT, % change from diabetic control / AUC in OGTT, Δ from diabetic control / AUC in OGTT, X (arithmetic mean): 2 h before glucose loading; for AUC in OGTT, X (arithmetic mean): AUC 0-120 min
Protocol: The oral glucose tolerance test was done in 14 h overnight fasted diabetic mice that were pretreated with a single oral dose of the tested compounds. Each of the tested agents was suspended in sodium carboxymethyl cellulose (CMC-Na) (1% in distilled water) and the dosing volume was adjusted to 10 ml/kg body weight per mouse. Then an oral glucose load was administered (2 g/kg) 2 h after drug treatment. Blood glucose levels were determined using the Accu-check Go® (Roche Diagnostics, Michigan, USA). Blood samples were collected just before drug administration (Fasting Blood glucose), then 2 h after drug treatment and before glucose loading. Blood samples collection was continued at 20, 40, 60 and 120 min intervals after glucose loading.
Animals were distributed between 17 groups (n=6) as follow: • a. Group 1: Animals were 14 h overnight-fasted normoglycemic mice and vehicle-treated (1% CMC-Na) at a dose of 10 ml/kg. • b. Group 2: Overnight fasted diabetic mice received the vehicle (1% CMC-Na) at a dosing volume of 10 ml/kg and served as a negative control. • c. Group 3: Overnight fasted diabetic mice received sitagliptin at a dose of 50 mg/kg in 1% CMC (in a volume of 10 ml/kg) and served as positive control. • a. Groups 4-17: Animals of these groups were overnight fasted diabetic mice received the tested compounds 128, 129, 130, 131, at a dose of 50 mg/kg in 1% CMC (volume of 10 ml/kg).

Structure (SMILES) | AUC in OGTT, % change from diabetic control [1] | AUC in OGTT, Δ from diabetic control [1] | Relative potency to sitagliptin (OGTT AUC) [1] | AUC in OGTT, X (arithmetic mean) [1] | glucose-lowering activity in OGTT compared with sitagliptin (in words) [2] | Relative potency to sitagliptin (OGTT AUC) [2] | AUC in OGTT, % change from diabetic control [2] | AUC in OGTT, Δ from diabetic control [2] | AUC in OGTT, X (arithmetic mean) [2] | relative potency in OGTT compared with sitagliptin (in words) [1]
N#Cc1cccc(NC(=O)CN2CCn3c(nnc3C(F)(F)F)C2)c1 [GLP-142] | −19.4% | -10216 mg·min/dL | 0.513 | 42439* mg · dL^−1 · min | less potent than sitagliptin | 0.76 | −18.51% | -9452 mg·min/dL | 41613 mg·min/dL | –
O=C(CN1CCn2c(nnc2C(F)(F)F)C1)NC1CCCCC1 [GLP-140] | −38.32% | -20180 mg·min/dL | 1.01 | 32475* mg · dL^−1 · min | less potent than sitagliptin | 0.69 | −16.89% | -8626 mg·min/dL | 42439 mg·min/dL | comparable or higher relative potency than sitagliptin
C[C@H](NC(=O)c1cccc(Cl)c1)C(=O)N1CCn2c(nnc2C(F)(F)F)C1 [GLP-130] | −34.11% | -17983 mg·min/dL | 0.90 | 34672* mg · dL^−1 · min | higher glucose-lowering activity than sitagliptin | 1.32 | −32.01% | -16345 mg·min/dL | 34720* mg · dL^−1 · min | comparable or higher relative potency than sitagliptin
